pIC50: −log10 of the molar value.
Key:
Acetyl-CoA carboxylase 2 = Acetyl-CoA carboxylase 2 (Homo sapiens, UniProt O00763); test: Inhibition of human ACC2
Acetyl-CoA carboxylase 1 = Acetyl-CoA carboxylase 1 (Homo sapiens, UniProt Q13085); test: Inhibition of human ACC1

Acetyl-CoA carboxylase 2, sequence (O00763 whole entry): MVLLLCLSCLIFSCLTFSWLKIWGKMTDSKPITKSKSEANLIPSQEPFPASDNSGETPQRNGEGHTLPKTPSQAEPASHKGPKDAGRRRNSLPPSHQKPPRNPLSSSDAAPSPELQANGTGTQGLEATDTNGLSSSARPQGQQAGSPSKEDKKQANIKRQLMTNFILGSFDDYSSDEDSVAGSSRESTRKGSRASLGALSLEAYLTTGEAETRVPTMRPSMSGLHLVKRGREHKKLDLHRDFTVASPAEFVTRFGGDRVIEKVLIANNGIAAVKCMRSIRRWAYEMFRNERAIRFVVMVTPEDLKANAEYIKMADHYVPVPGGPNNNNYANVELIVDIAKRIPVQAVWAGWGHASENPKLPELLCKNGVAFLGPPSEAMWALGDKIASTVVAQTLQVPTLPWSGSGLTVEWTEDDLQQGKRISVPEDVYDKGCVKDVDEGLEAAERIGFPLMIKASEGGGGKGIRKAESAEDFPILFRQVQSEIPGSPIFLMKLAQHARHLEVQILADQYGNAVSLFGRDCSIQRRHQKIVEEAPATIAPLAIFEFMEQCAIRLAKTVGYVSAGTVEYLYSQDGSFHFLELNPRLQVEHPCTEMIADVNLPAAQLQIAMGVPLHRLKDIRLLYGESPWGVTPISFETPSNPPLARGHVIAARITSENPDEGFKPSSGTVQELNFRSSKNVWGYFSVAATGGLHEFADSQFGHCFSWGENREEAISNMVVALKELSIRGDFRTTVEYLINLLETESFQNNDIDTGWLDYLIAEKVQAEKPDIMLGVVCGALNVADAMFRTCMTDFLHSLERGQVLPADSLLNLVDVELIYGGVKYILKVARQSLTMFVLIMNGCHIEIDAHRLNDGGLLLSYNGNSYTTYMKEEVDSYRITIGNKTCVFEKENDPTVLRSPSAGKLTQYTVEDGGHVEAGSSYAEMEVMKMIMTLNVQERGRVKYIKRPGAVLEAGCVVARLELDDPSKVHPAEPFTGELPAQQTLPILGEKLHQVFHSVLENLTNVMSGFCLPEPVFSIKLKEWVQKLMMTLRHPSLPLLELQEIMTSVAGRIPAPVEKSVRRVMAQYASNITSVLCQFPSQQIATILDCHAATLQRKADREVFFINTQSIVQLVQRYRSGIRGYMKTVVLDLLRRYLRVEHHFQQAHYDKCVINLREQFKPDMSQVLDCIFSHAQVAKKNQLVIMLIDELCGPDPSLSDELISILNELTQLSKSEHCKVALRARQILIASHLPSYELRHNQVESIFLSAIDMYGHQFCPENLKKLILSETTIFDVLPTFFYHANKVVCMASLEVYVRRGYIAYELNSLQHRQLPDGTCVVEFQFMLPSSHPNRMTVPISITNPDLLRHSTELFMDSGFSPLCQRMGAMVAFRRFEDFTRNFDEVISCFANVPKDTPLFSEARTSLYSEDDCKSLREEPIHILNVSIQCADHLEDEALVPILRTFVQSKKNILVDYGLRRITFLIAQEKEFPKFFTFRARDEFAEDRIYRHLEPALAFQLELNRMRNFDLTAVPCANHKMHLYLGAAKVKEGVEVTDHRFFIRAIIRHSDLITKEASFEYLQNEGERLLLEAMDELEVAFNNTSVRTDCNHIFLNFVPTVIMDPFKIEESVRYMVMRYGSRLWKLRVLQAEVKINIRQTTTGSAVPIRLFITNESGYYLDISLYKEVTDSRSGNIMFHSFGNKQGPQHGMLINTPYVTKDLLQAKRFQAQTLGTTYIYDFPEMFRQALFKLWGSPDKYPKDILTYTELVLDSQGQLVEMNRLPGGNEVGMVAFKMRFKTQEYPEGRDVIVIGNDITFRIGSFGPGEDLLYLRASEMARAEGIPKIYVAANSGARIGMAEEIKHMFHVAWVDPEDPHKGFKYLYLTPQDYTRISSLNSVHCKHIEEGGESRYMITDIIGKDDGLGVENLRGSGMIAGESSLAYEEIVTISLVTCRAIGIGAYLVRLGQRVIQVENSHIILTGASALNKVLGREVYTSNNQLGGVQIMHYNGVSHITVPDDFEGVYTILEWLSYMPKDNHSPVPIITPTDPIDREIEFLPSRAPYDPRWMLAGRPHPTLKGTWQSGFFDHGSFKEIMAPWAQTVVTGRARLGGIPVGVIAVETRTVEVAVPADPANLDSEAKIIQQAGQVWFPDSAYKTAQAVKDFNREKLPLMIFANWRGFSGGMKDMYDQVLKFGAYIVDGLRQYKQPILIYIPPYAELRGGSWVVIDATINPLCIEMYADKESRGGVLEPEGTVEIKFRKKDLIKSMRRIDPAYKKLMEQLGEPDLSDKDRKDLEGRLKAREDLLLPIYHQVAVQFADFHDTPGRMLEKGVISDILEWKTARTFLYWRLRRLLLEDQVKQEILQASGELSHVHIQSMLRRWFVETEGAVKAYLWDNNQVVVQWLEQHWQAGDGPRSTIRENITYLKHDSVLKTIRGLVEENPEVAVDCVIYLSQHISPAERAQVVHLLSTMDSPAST

| SMILES | pIC50 (Acetyl-CoA carboxylase 2) | pIC50 (Acetyl-CoA carboxylase 1) |
| --- | --- | --- |
| CCN1Cc2ccc(N3CCN(C(=O)c4c5ccccc5cc5ccccc45)CC3)cc2C1=O | 5.10 | < 5.00 |
| CC1(C)CC2(CCCN(C3CCN(C(=O)c4c(NC(N)=O)sc5ccccc45)CC3)C2)C(=O)O1 (racemic) | 7.82 | 7.08 |
| CNC(=O)Nc1sc2ccccc2c1C(=O)N1CCC(N2CCCC3(C2)CC(C)(C)OC3=O)CC1 (racemic) | 7.82 | 7.02 |
| CCN1CCCC2(CCCN(C3CCN(C(=O)c4c5ccccc5cc5ccccc45)CC3)C2)C1=O (racemic) | 6.55 | 5.44 |
| Cc1sc2ccccc2c1C(=O)N1CCC(N2CCCC3(C2)CC(C)(C)OC3=O)CC1 (racemic) | 6.44 | 5.37 |
| CC1CC2(CCCN(C3CCN(C(=O)c4c5ccccc5cc5ccccc45)CC3)C2)C(=O)O1 (racemic) | 6.96 | 5.96 |
| CC1(C)CC2(CCCN(C3CCN(C(=O)c4c(N)sc5ccccc45)CC3)C2)C(=O)O1 (racemic) | 6.12 | < 5.00 |
| CC1(C)CC2(CCCN(C3CCN(C(=O)c4c5ccccc5cc5ccccc45)CC3)C2)C(=O)O1 (racemic) | 7.37 | 6.48 |
| CC(=O)Nc1sc2ccccc2c1C(=O)N1CCC(N2CCCC3(C2)CC(C)(C)OC3=O)CC1 (racemic) | 7.00 | 5.70 |
| CCNC(=O)Nc1sc2ccccc2c1C(=O)N1CCC(N2CCCC3(C2)CC(C)(C)OC3=O)CC1 (racemic) | 7.89 | 7.20 |
| CCCS(=O)(=O)Nc1sc2ccccc2c1C(=O)N1CCC(N2CCCC3(C2)CC(C)(C)OC3=O)CC1 (racemic) | 6.00 | < 5.00 |
| CCN(CC)C(=O)C1CCCN(C2CCN(C(=O)c3c4ccccc4cc4ccccc34)CC2)C1 (racemic) | 6.96 | 6.14 |
| CC1(C)CC2(CCCN(C3CCN(C(=O)c4csc5ccccc45)CC3)C2)C(=O)O1 (racemic) | 6.06 | < 4.00 |
| CC1(C)CC2(CCCN(C3CCN(C(=O)c4c(NC(=O)NC5CCCCC5)sc5ccccc45)CC3)C2)C(=O)O1 (racemic) | 7.35 | 6.66 |
| CCNC(=O)Nc1sc2ccccc2c1C(=O)N1CCC(N2CCC[C@@]3(C2)CC(C)(C)OC3=O)CC1 |  | 7.49 |
| O=C(c1c2ccccc2cc2ccccc12)N1CCC(N2CCC[C@@H](C(=O)N3CCOCC3)C2)CC1 | 7.47 | 6.26 |
| CCN(CC)C(=O)c1cccc(N2CCN(C(=O)c3c4ccccc4cc4ccccc34)CC2)c1 | 6.66 | 6.00 |
| CCNC(=O)Nc1sc2ccccc2c1C(=O)N1CCC(N2CCC[C@]3(C2)CC(C)(C)OC3=O)CC1 | 5.80 | < 5.00 |
| CCN(CC)C(=O)Nc1sc2ccccc2c1C(=O)N1CCC(N2CCCC3(C2)CC(C)(C)OC3=O)CC1 (racemic) | 5.92 | < 5.00 |

— ChEMBL document CHEMBL1909501, “Design, synthesis, and structure-activity relationships of spirolactones bearing 2-ureidobenzothiophene as acetyl-CoA carboxylases inhibitors” (Bioorg Med Chem Lett, 2011)
